In general, IC50 refers to the midpoint of a concentration-inhibition curve.

Experimental findings from ChEMBL document CHEMBL3430912, “GSK Tres Cantos Anti-Kinetoplastid Screening (TCAKS) Data” are described below.

For data set [1], the system named is Leishmania donovani. Description: GSK_TCAKS: pIC50 Leishmania donovani viability assay using fluorescence intensity. Assay plates (1536-well) were prepared by adding 30nL per well of compound. For single shot assay, the final compound concentration was 5uM. […] Briefly, eGFP LdBOB axenic amastigotes were harvested, fixed and counted in a CASY cell counter (Roche-Applied Science). A final concentration of 1.5 * 10^5 cells per well were prepared in amastigote media containing 500 U/mL penicillin/streptomycin (Invitrogen) and 6uL was dispensed to each experimental well using a Multidrop Combi dispenser (Thermo Scientific). 6uL of assay media was dispensed to control columns used as reference for 100% compound response. Following incubation for 72 h at 37C, 5% CO2, 2 uL of resazurin was added to each well at a final concentration of 0.5 mM in phosphate buffered saline (PBS) with IGEPAL (Sigma-Aldrich), 0.05% (v/v). In kind it is functional, organism-based.

Data set [2] relates to Trypanosoma cruzi. The data set is described as follows: (§1) GSK_TCAKS: pIC50 Trypanosoma cruzi Imaging: Amastigotes/Cell. […] Cells were then washed once with PBS before infection. T. cruzi trypomastigotes, collected at days 5 to 8 after infection from LLC-MK2 parasite infected cultures, were allowed to swim out for 4h at 37C from a centrifuged pellet (2,500 rpm/10 min/room temperature). Trypomastigotes were then collected and counted in a CASY Cell Counter. Trypomastigotes, in supplemented DMEM, were added to H9c2 cultures in a multiplicity of infection of 1 and incubated for 18 h. Cells were washed once with PBS before incubation of the infected H9c2 monolayer with trypsin (Life-Technologies) to detach cells from the flask. Cells were counted in a CASY Cell Counter using a 150 um capillary and their density set at 5 * 10^4 cells per mL in supplemented assay DMEM. Infected H9c2 were dispensed into 384-well poly-lysine coated assay plates at 50uL per well using a Multidrop Combi dispenser. After seeding them, the plates were incubated at 37C, 5% CO2 for 72h. Cultures were then fixed and stained by addition of 50 uL of a solution containing 8% formaldehyde and 4 uM DRAQ5 DNA dye (BioStatus, UK) per well. […] Five images were collected per well for reliable statistical analysis. Automated image analysis was performed with a script developed on Acapella High Content Imaging and Analysis Software (PerkinElmer). Output: number of amastigotes per cell as infection level measurement. In kind it is functional, organism-based, Rattus norvegicus. To be noted: H9c2, 4 h.

For data set [3], the system named is Trypanosoma cruzi. The description is as §1, with “H2C9” for “Trypanosoma cruzi”, “H9c2 Host Cardiomyocytes.” for “Amastigotes/Cell.”, “Number” for “number”, “H9c2 Host Cardiomyocytes nuclei to determine drug-related cytotoxicity.” for “amastigotes per cell as infection level measurement.”. In kind it is functional, organism-based, Rattus norvegicus. To be noted: H9c2, 4 h.

Data set [4] deals with Trypanosoma cruzi. Description: GSK_TCAKS: pIC50 Trypanosoma cruzi Imaging: Infected Cells. […] Cells were then washed once with PBS before infection. T. cruzi trypomastigotes, collected at days 5 to 8 after infection from LLC-MK2 parasite infected cultures, were allowed to swim out for 4h at 37C from a centrifuged pellet (2,500 rpm/10 min/room temperature). Trypomastigotes were then collected and counted in a CASY Cell Counter. Trypomastigotes, in supplemented DMEM, were added to H9c2 cultures in a multiplicity of infection of 1 and incubated for 18 h. Cells were washed once with PBS before incubation of the infected H9c2 monolayer with trypsin (Life-Technologies) to detach cells from the flask. Cells were counted in a CASY Cell Counter using a 150 um capillary and their density set at 5 * 10^4 cells per mL in supplemented assay DMEM. Infected H9c2 were dispensed into 384-well poly-lysine coated assay plates at 50uL per well using a Multidrop Combi dispenser. After seeding them, the plates were incubated at 37C, 5% CO2 for 72h. Cultures were then fixed and stained by addition of 50 uL of a solution containing 8% formaldehyde and 4 uM DRAQ5 DNA dye (BioStatus, UK) per well. […] Five images were collected per well for reliable statistical analysis. Automated image analysis was performed with a script developed on Acapella High Content Imaging and Analysis Software (PerkinElmer). Output: percentage of infected cells per well as a second infection marker. It is filed as functional, organism-based, Rattus norvegicus. To be noted: H9c2, 4 h.

In data set [5] the test system is Trypanosoma brucei brucei. Description: GSK_TCAKS: pIC50 Trypanosoma brucei viability assay using luminiscence. Assay plates (1536-well) were prepared. T. brucei cultures were harvested and counted in a CASY cell counter. A parasite suspension was prepared at a final concentration of 5 * 10^4 cells/mL in complete HMI9 medium and 6uL was dispensed to all wells containing compounds using a Multidrop Combi dispenser. 6uL of HMI9 media with 0.4% DMSO were dispensed to control columns. Plates were incubated for 24 h at 37C, 5% CO2 then tempered for 10 min at room temperature. ATP content was quantified by adding 4 uL of CellTiter-Glo Reagent (Promega) according to the manufacturer's instructions. Luminescence was measured using a ViewLux. In kind it is functional, organism-based. To be noted: Lister 427, CASY.

The test system of data set [6] is Trypanosoma brucei brucei. The data set is described as follows: GSK_TCAKS: pIC50 Trypanosoma brucei viability assay using fluorescence intensity. Assay plates (1536-well) were prepared by dispensing 25nL of compound solution per well using an Echo acoustic dispenser (Labcyte). It is filed as functional, organism-based. To be noted: Lister 427, 2 h.
Data set [7] concerns Leishmania donovani. The data set is described as follows: GSK_TCAKS: pIC50 Leishmania donovani Imaging: THP-1 Host Macrophages. Assay plates (384-well) were prepared by adding 250nL of compound to each well. For single shot assay, the final compound concentration was 5 uM. […] Automated image analysis was performed with a script developed on Acapella High Content Imaging and Analysis Software (PerkinElmer). Output: THP-1 cell count were reported for each well. It is filed as functional, organism-based, Homo sapiens.

The test system of data set [8] is Trypanosoma cruzi. The data set is described as follows: GSK_TCAKS: pIC50 Trypanosoma cruzi viability assay using beta-GAL activity. This assay was run at single shot at 5uM compound concentration per well. The biological reagents consisted of NIH-3T3 host cells and trypomastigotes parasitic cells; both cell types were set to a 3.3 * 10^5 cells/mL dilution in assay DMEM by means of a CASY cell counter device using a 60um capillary. 6 uL of the mixture were dispensed per well (about 1 * 10^3 host-cells and 1 * 10^3 parasites) with a Multidrop Combi dispenser. […] In all wells, the percentage of DMSO never exceeded 0.5%. Plates incubated for four days at 37C, 5% CO2. The substrate used for the assay fluorescence intensity (FLINT) readout was resorufin-beta-D-galactopiranoside (Sigma-Aldrich) at 5uM per well. It was diluted in PBS supplemented with the soft detergent Igepal (Fluka). In kind it is functional, organism-based, Mus musculus. To be noted: Tulahuen, NIH3T3.

Data set [9] is described as follows: GSK_TCAKS: pIC50 HepG2 human cell line viability assay using luminiscence. […] Seeding density was checked to ensure that new mono-layers were not more than 50% confluent at the time of harvesting. Cell suspension was added to 500 mL of the same medium at a final density of 1.2 * 10^5 cells/mL. This cell suspension was dispensed (25 uL, 3000 cells per well) into 384-well clear-bottom plates using a Multidrop Combi dispenser. Prior to addition of the cell suspension, the screening compounds (250 nL) were pre-dispensed into the plates with an Echo liquid handler. Plates were incubated for 48 h at 37C, 5% CO2. After incubation, plates equilibrated at room temperature for 30 min before proceeding to develop the luminescent signal. The signal developer, CellTiter-Glo Reagent, was allowed to equilibrate at room temperature for 30 min and added to the plates (25uL per well) using a Multidrop Combi dispenser. Plates were left for 10 min at room temperature for stabilization and then read using a ViewLux. It is filed as toxicity, cell-based.

Data set [10] concerns the target Sterol 14-alpha demethylase (Trypanosoma cruzi (strain CL Brener), UniProt Q7Z1V1). Description: GSK_TCAKS: pIC50 CYP51 from Trypanosoma cruzi. In kind it is functional.
Data set [11] relates to Leishmania donovani. Description: GSK_TCAKS: pIC50 Leishmania donovani Imaging: Infected Macrophages. Assay plates (384-well) were prepared by adding 250nL of compound to each well. For single shot assay, the final compound concentration was 5 uM. […] Automated image analysis was performed with a script developed on Acapella High Content Imaging and Analysis Software (PerkinElmer). Output: Percent of infected macrophage cells were reported for each well. In kind it is functional, organism-based, Homo sapiens. To be noted: THP-1.

The subject of data set [12] is Leishmania donovani. The data set is described as follows: GSK_TCAKS: pIC50 Leishmania donovani Imaging: Amastigotes/Macrophages. Assay plates (384-well) were prepared by adding 250nL of compound to each well. For single shot assay, the final compound concentration was 5 uM. […] Automated image analysis was performed with a script developed on Acapella High Content Imaging and Analysis Software (PerkinElmer). Output: Average number of amastigotes per macrophage cell were reported for each well. In kind it is functional, organism-based, Homo sapiens. To be noted: THP-1.

Sterol 14-alpha demethylase, sequence (Q7Z1V1 whole entry): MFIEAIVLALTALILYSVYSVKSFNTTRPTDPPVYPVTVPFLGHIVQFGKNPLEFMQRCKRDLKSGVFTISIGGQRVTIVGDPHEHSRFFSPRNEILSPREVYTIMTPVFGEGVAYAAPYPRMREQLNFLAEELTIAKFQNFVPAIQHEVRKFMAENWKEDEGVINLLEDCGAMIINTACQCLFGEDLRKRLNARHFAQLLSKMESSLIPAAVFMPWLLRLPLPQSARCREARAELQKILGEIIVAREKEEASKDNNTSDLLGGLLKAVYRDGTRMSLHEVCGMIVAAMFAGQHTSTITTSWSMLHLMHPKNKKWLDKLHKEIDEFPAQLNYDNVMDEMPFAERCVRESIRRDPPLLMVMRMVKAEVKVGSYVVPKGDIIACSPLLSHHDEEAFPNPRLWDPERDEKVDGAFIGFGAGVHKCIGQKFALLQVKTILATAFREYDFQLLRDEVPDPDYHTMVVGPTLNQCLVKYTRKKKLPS

For the molecule `O=C1COC(c2ccccc2)(c2ccccc2)CN1C1CCN(Cc2ccc(-n3ccnc3)cc2)CC1`, the concentration for half-maximal inhibition (IC50) is 31.6 µM with Leishmania donovani [1]; 0.501 µM with Trypanosoma cruzi [2]; 31.6 µM in the data set on Trypanosoma cruzi [3]; 2 µM in the data set with Trypanosoma cruzi [4]; 1 µM in data set [5]; 0.794 µM in [6]. Besides, the IC50 is 15.8 µM with Leishmania donovani [7]; 1.58 µM in the data set with Trypanosoma cruzi [8]; 0.0794 µM in data set [10]; 15.8 µM in the data set on Leishmania donovani [11]; 12.6 µM with Leishmania donovani [12]. This molecule also showed an IC50 at 48 h in data set [9] of 50.1 µM.

In the case of `CC(=O)Nc1ccc(CN2CCC(N3CC(c4ccccc4)(c4ccccc4)OCC3=O)CC2)cc1`, the 50% inhibitory concentration (IC50) with Leishmania donovani [1] was 0.501 µM; in the data set on Trypanosoma cruzi [2] it was 20 µM; in the data set with Trypanosoma cruzi [3] it was over 50.1 µM; in the data set on Trypanosoma cruzi [4], 31.6 µM; in [5] it was 0.398 µM; in data set [6], 0.316 µM. The IC50 in the data set on Leishmania donovani [7] was 39.8 µM; in the data set on Trypanosoma cruzi [8] it was 12.6 µM; in [10] it was over 100 µM; in the data set on Leishmania donovani [11] it was 25.1 µM; in the data set with Leishmania donovani [12] it was 20 µM. This molecule also gave an IC50 at 48 h in data set [9] of 79.4 µM.

Consider `CCc1ccccc1[C@@H](C)NC(=O)c1cnc2c(cnn2CC)c1NC1CCN(C(N)=O)CC1`, for which the half-maximal inhibitory concentration (IC50) in the data set on Leishmania donovani [1] was over 50.1 µM; with Trypanosoma cruzi [2], 39.8 µM; with Trypanosoma cruzi [3] it was over 50.1 µM; in the data set on Trypanosoma cruzi [4], over 50.1 µM; in [5], 0.501 µM; in data set [6] it was 0.251 µM. For the same molecule, the IC50 is over 50.1 µM in the data set on Leishmania donovani [7]; 25.1 µM with Trypanosoma cruzi [8]; 79.4 µM in data set [10]; over 50.1 µM in the data set with Leishmania donovani [11]; over 50.1 µM in the data set on Leishmania donovani [12]. The molecule also had an IC50 at 48 h in data set [9] of over 100 µM.

As to `COC(=O)c1ccc(-c2cnc3ccc(NCc4ccccn4)nn23)cc1`, the half-maximal inhibitory concentration (IC50) with Leishmania donovani [1] is 12.6 µM; in the data set on Trypanosoma cruzi [2], 5.01 µM; with Trypanosoma cruzi [3] it was over 50.1 µM; in the data set on Trypanosoma cruzi [4] it was 7.94 µM; in data set [5], 1 µM; in [6] it was 0.631 µM. Besides, the IC50 with Leishmania donovani [7] was 12.6 µM; with Trypanosoma cruzi [8] it was 7.94 µM; in data set [10] it was 1.26 µM; in the data set on Leishmania donovani [11], over 50.1 µM; in the data set with Leishmania donovani [12] it was 15.8 µM. Besides, the midpoint of inhibition in data set [9], the IC50 at 48 h, lay at 100 µM.

Turning to `O=C(Nc1cccc(S(=O)(=O)Nc2ccc(Br)cc2)c1)c1ccc([N+](=O)[O-])s1`, the IC50 was 0.794 µM with Leishmania donovani [1]; 0.1 µM in the data set on Trypanosoma cruzi [2]; 2.51 µM in the data set with Trypanosoma cruzi [3]; 0.126 µM in the data set on Trypanosoma cruzi [4]; 0.398 µM in data set [5]; 0.2 µM in data set [6]. In addition, the IC50 in the data set with Leishmania donovani [7] is 10 µM; in the data set with Trypanosoma cruzi [8] it was 0.1 µM; in data set [10], 2.51 µM; in the data set on Leishmania donovani [11] it was 1 µM; in the data set on Leishmania donovani [12] it was 0.794 µM. Also, the 50% inhibitory concentration (IC50) at 48 h in [9] was 15.8 µM.

Consider `CCc1cccc(CC)c1-n1c(SCC(=O)N2CC(=O)Nc3ccccc32)nnc1-c1cccnc1`, for which the IC50 with Leishmania donovani [1] was 39.8 µM; with Trypanosoma cruzi [2], 25.1 µM; with Trypanosoma cruzi [3], over 50.1 µM; in the data set on Trypanosoma cruzi [4] it was 31.6 µM; in [5], 1 µM; in data set [6], 0.501 µM. Besides, the 50% inhibitory concentration (IC50) is over 50.1 µM in the data set on Leishmania donovani [7]; 25.1 µM with Trypanosoma cruzi [8]; 3.16 µM in data set [10]; over 50.1 µM with Leishmania donovani [11]; over 50.1 µM with Leishmania donovani [12]. This molecule gave an IC50 at 48 h in data set [9] of over 100 µM.
